Data as given in patent US8741906B2 (priority 2011, dated 2014).
Where two headings read alike, the source gives them in different places.

Experiments:
human CB1 receptors = target: T1, human CB1 receptors (Homo sapiens, UniProt P21554); test: functional cAMP assay, human CB1; assay type: cell-based
T1 construct: expressed in transfected cells; host or cells: CHO cells
How it was run: (§1)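 Readout: TR-FRET cAMP detection at 730 and 645 nm with 355 nm excitation, quantified from a standard curve spanning 10 μM to 0.13 nM cAMP. Human CB1- or CB2-expressing CHO cells were exposed to compound for 30 min at 30 °C in KRB buffer containing 1 mM IBMX. EC50 derived.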

human CB2 receptors = target: T2, human CB2 receptors (Homo sapiens, UniProt P34972); test: functional cAMP assay, human CB2; assay type: cell-based; settings: CHO cells expressing human CB2, cAMP; read-out: human CB2 EC50
T2 construct: expressed in transfected cells; host or cells: CHO cells
How it was run: as §1

[1] = CHO cells expressing human CB1, cAMP, read-out: human CB1 EC50

T2 sequence (P34972 whole entry): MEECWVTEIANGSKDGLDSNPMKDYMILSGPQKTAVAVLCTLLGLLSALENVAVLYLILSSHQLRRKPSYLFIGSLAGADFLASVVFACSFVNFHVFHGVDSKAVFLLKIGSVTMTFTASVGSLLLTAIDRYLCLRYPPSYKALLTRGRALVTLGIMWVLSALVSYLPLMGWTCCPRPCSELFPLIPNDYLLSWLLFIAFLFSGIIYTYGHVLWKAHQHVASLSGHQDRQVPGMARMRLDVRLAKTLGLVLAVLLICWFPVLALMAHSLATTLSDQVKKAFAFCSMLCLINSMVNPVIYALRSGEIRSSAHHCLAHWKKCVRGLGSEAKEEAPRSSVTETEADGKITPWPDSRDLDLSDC
T1 sequence (P21554 whole entry): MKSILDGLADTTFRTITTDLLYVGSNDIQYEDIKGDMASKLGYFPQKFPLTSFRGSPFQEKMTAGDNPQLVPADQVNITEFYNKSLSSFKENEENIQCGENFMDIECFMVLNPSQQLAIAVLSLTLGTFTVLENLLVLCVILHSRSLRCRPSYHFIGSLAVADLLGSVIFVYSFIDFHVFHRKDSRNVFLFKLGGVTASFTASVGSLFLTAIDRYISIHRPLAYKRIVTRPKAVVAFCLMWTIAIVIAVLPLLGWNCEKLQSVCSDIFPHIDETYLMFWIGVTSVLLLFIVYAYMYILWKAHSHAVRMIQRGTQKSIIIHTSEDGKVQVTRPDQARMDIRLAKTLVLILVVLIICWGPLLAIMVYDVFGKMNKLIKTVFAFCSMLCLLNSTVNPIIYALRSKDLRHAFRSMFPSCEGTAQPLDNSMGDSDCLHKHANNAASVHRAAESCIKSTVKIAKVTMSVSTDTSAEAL

Structure (SMILES)	EC50 (human CB1 receptors; [1]) [nM]	EC50 (human CB2 receptors) [nM]	EC50 (human CB1 receptors) [nM]
Cn1nnnc1Cn1nnc2c(N3CC(F)(F)C(F)(F)C3)nc(C(C)(C)C)nc21 [Example 176, 5-tert-Butyl-3-(1-methyl-1H-tetrazol-5-ylmethyl)-7-(3,3,4,4-tetrafluoro-pyrrolidin-1-yl)-3H-[1,2,3]triazolo[4,5-d]pyrimidine]	2000	0.5	–
Cc1nnc(Cn2nnc3c(N4CC(F)(F)C(F)(F)C4)nc(C(C)(C)C)nc32)n1C [Example 177, 5-tert-Butyl-3-(4,5-dimethyl-4H-[1,2,4]triazol-3-ylmethyl)-7-(3,3,4,4-tetrafluoro-pyrrolidin-1-yl)-3H-[1,2,3]triazolo[4,5-d]pyrimidine]	> 10000	1.1	–
Cn1nncc1Cn1nnc2c(N3CC(F)(F)C(F)(F)C3)nc(C(C)(C)C)nc21 [Example 178, 5-tert-Butyl-3-(3-methyl-3H-[1,2,3]triazol-4-ylmethyl)-7-(3,3,4,4-tetrafluoro-pyrrolidin-1-yl)-3H-[1,2,3]triazolo[4,5-d]pyrimidine]	1890	0.9	–
Cc1nonc1Cn1nnc2c(N3CC4(COC4)C3)nc(C(C)(C)C)nc21 [Example 179, 5-tert-Butyl-3-(4-methyl-furazan-3-ylmethyl)-7-(2-oxa-6-aza-spiro[3.3]hept-6-yl)-3H-[1,2,3]triazolo[4,5-d]pyrimidine]	> 10000	2	–
Cc1noc(Cn2nnc3c(N4CC5(COC5)C4)nc(C(C)(C)C)nc32)n1 [Example 180, 5-tert-Butyl-3-(3-methyl-[1,2,4]oxadiazol-5-ylmethyl)-7-(2-oxa-6-aza-spiro[3.3]hept-6-yl)-3H-[1,2,3]triazolo[4,5-d]pyrimidine]	> 10000	52.8	–
Cc1nnc(Cn2nnc3c(N4CC5(COC5)C4)nc(C(C)(C)C)nc32)o1 [Example 181, 5-tert-Butyl-3-(5-methyl-[1,3,4]oxadiazol-2-ylmethyl)-7-(2-oxa-6-aza-spiro[3.3]hept-6-yl)-3H-[1,2,3]triazolo[4,5-d]pyrimidine]	> 10000	59.4	–
Cn1nnnc1Cn1nnc2c(N3CC4(COC4)C3)nc(C(C)(C)C)nc21 [Example 182, 5-tert-Butyl-3-(1-methyl-1H-tetrazol-5-ylmethyl)-7-(2-oxa-6-aza-spiro[3.3]hept-6-yl)-3H-[1,2,3]triazolo[4,5-d]pyrimidine]	> 10000	13.9	–
CC(C)(C)c1nc(N2CC3(COC3)C2)c2nnn(Cc3nnnn3C3CC3)c2n1 [Example 183, 5-tert-Butyl-3-(1-cyclopropyl-1H-tetrazol-5-ylmethyl)-7-(2-oxa-6-aza-spiro[3.3]hept-6-yl)-3H-[1,2,3]triazolo[4,5-d]pyrimidine]	> 10000	4.2	–
Cc1nnc(Cn2nnc3c(N4CC5(COC5)C4)nc(C(C)(C)C)nc32)n1C [Example 184, 5-tert-Butyl-3-(4,5-dimethyl-4H-[1,2,4]triazol-3-ylmethyl)-7-(2-oxa-6-aza-spiro[3.3]hept-6-yl)-3H-[1,2,3]triazolo[4,5-d]pyrimidine]	–	112	> 10000
Cn1nncc1Cn1nnc2c(N3CC4(COC4)C3)nc(C(C)(C)C)nc21 [Example 185, 5-tert-Butyl-3-(3-methyl-3H-[1,2,3]triazol-4-ylmethyl)-7-(2-oxa-6-aza-spiro[3.3]hept-6-yl)-3H-[1,2,3]triazolo[4,5-d]pyrimidine]	> 10000	26.8	–
CC(C)(C)c1nc(N2CC3(COC3)C2)c2nnn(Cc3ccccc3S(C)(=O)=O)c2n1 [Example 186, 5-tert-Butyl-3-(2-methanesulfonyl-benzyl)-7-(2-oxa-6-aza-spiro[3.3]hept-6-yl)-3H-[1,2,3]triazolo[4,5-d]pyrimidine]	137	0.3	–
CC(C)(C)c1nc(N2CC3(COC3)C2)c2nnn(Cc3ncccc3Cl)c2n1 [Example 187, 5-tert-Butyl-3-(3-chloro-pyridin-2-ylmethyl)-7-(2-oxa-6-aza-spiro[3.3]hept-6-yl)-3H-[1,2,3]triazolo[4,5-d]pyrimidine]	119	0.8	–
CC(C)(C)c1nc(N2CCC(=O)C2)c2nnn(Cc3ccccc3Cl)c2n1 [Example 188, 1-[5-tert-Butyl-3-(2-chloro-benzyl)-3H-[1,2,3]triazolo[4,5-d]pyrimidin-7-yl]-pyrrolidin-3-one]	> 10000	1	–
CC1(C)CCN(c2nc(C(C)(C)C)nc3c2nnn3Cc2ccccc2Cl)C1 [Example 189, 5-tert-Butyl-3-(2-chloro-benzyl)-7-(3,3-dimethyl-pyrrolidin-1-yl)-3H-[1,2,3]triazolo[4,5-d]pyrimidine]	> 10000	33.2	–
CNC1CCN(c2nc(C(C)(C)C)nc3c2nnn3Cc2ccccc2Cl)C1 (centres unmarked) [Example 190, {1-[5-tert-Butyl-3-(2-chloro-benzyl)-3H-[1,2,3]triazolo[4,5-d]pyrimidin-7-yl]-pyrrolidin-3-yl}-methyl-amine]	> 10000	72.6	–
CN(C)C1CCN(c2nc(C(C)(C)C)nc3c2nnn3Cc2ccccc2Cl)C1 (centres unmarked) [Example 191, {1-[5-tert-Butyl-3-(2-chloro-benzyl)-3H-[1,2,3]triazolo[4,5-d]pyrimidin-7-yl]-pyrrolidin-3-yl}-dimethyl-amine]	–	173	> 10000

Structure (SMILES)	EC50 (human CB1 receptors; [1]) [nM]	EC50 (human CB2 receptors) [nM]	EC50 (human CB1 receptors) [nM]
CC(=O)N[C@H]1CCN(c2nc(C(C)(C)C)nc3c2nnn3Cc2ccccc2Cl)C1 [Example 192, N-{(S)-1-[5-tert-Butyl-3-(2-chloro-benzyl)-3H-[1,2,3]triazolo[4,5-d]pyrimidin-7-yl]-pyrrolidin-3-yl}-acetamide]	> 10000	22	–
CC(=O)N[C@@H]1CCN(c2nc(C(C)(C)C)nc3c2nnn3Cc2ccccc2Cl)C1 [Example 193, N-{(R)-1-[5-tert-Butyl-3-(2-chloro-benzyl)-3H-[1,2,3]triazolo[4,5-d]pyrimidin-7-yl]-pyrrolidin-3-yl}-acetamide]	> 10000	593	–
CC(=O)N(C)C1CCN(c2nc(C(C)(C)C)nc3c2nnn3Cc2ccccc2Cl)C1 (centres unmarked) [Example 194, N-{1-[5-tert-Butyl-3-(2-chloro-benzyl)-3H-[1,2,3]triazolo[4,5-d]pyrimidin-7-yl]-pyrrolidin-3-yl}-N-methyl-acetamide]	–	285	> 10000
CC(C)(C)c1nc(N2CCC(c3ccccc3)C2)c2nnn(Cc3ccccc3Cl)c2n1 (centres unmarked) [Example 195, 5-tert-Butyl-3-(2-chloro-benzyl)-7-(3-phenyl-pyrrolidin-1-yl)-3H-[1,2,3]triazolo[4,5-d]pyrimidine]	–	467	> 10000
CCN(C(C)=O)C1CCN(c2nc(C(C)(C)C)nc3c2nnn3Cc2ccccc2Cl)C1 (centres unmarked) [Example 196, N-{1-[5-tert-Butyl-3-(2-chloro-benzyl)-3H-[1,2,3]triazolo[4,5-d]pyrimidin-7-yl]-pyrrolidin-3-yl}-N-ethyl-acetamide]	–	119	> 10000
COC(=O)C1CN(c2nc(C(C)(C)C)nc3c2nnn3Cc2ccccc2Cl)C1 [Example 197, 1-[5-tert-Butyl-3-(2-chloro-benzyl)-3H-[1,2,3]triazolo[4,5-d]pyrimidin-7-yl]-azetidine-3-carboxylic acid methyl ester]	–	257	> 10000
CC1CCN(c2nc(C(C)(C)C)nc3c2nnn3Cc2ccccc2Cl)C1 (centres unmarked) [Example 198, 5-tert-Butyl-3-(2-chloro-benzyl)-7-(3-methyl-pyrrolidin-1-yl)-3H-[1,2,3]triazolo[4,5-d]pyrimidine]	1710	12.8	–
CC(C)(C)c1nc(N2CCC[C@H]2CN)c2nnn(Cc3ccccc3Cl)c2n1 [Example 199, C-{(S)-1-[5-tert-Butyl-3-(2-chloro-benzyl)-3H-[1,2,3]triazolo[4,5-d]pyrimidin-7-yl]-pyrrolidin-2-yl}-methylamine]	–	183	> 10000
Cn1ccc(C2CCCN2c2nc(C(C)(C)C)nc3c2nnn3Cc2ccccc2Cl)n1 (centres unmarked) [Example 200, 5-tert-Butyl-3-(2-chloro-benzyl)-7-[2-(1-methyl-1H-pyrazol-3-yl)-pyrrolidin-1-yl]-3H-[1,2,3]triazolo[4,5-d]pyrimidine]	–	178	> 10000
Cn1nccc1C1CCCN1c1nc(C(C)(C)C)nc2c1nnn2Cc1ccccc1Cl (centres unmarked) [Example 201, 5-tert-Butyl-3-(2-chloro-benzyl)-7-[2-(2-methyl-2H-pyrazol-3-yl)-pyrrolidin-1-yl]-3H-[1,2,3]triazolo[4,5-d]pyrimidine]	> 10000	65.7	–
Cc1cc(C2CCCN2c2nc(C(C)(C)C)nc3c2nnn3Cc2ccccc2Cl)on1 (centres unmarked) [Example 202, 5-tert-Butyl-3-(2-chloro-benzyl)-7-[2-(3-methyl-isoxazol-5-yl)-pyrrolidin-1-yl]-3H-[1,2,3]triazolo[4,5-d]pyrimidine]	> 10000	86.8	–
Cc1noc(C2CCCN2c2nc(C(C)(C)C)nc3c2nnn3Cc2ccccc2Cl)n1 (centres unmarked) [Example 203, 5-tert-Butyl-3-(2-chloro-benzyl)-7-[2-(3-methyl-[1,2,4]oxadiazol-5-yl)-pyrrolidin-1-yl]-3H-[1,2,3]triazolo[4,5-d]pyrimidine]	> 10000	53.1	–
CC(C)(C)c1nc(N2CCC(O)C2)c2nnn(Cc3ccccc3Cl)c2n1 (centres unmarked) [Example 204, 1-[5-tert-Butyl-3-(2-chloro-benzyl)-3H-[1,2,3]triazolo[4,5-d]pyrimidin-7-yl]-pyrrolidin-3-ol]	> 10000	0.5	–
CC(C)(C)c1nc(OC2CCC2)c2nnn(Cc3ccccc3Cl)c2n1 [Example 205, 5-tert-Butyl-3-(2-chloro-benzyl)-7-cyclobutoxy-3H-[1,2,3]triazolo[4,5-d]pyrimidine]	> 10000	12.2	–
CC(C)(C)c1nc(OC2COC2)c2nnn(Cc3ccccc3Cl)c2n1 [Example 206, 5-tert-Butyl-3-(2-chloro-benzyl)-7-(oxetan-3-yloxy)-3H-[1,2,3]triazolo[4,5-d]pyrimidine]	> 10000	11.3	–
